Laboratory results published in paper PMC8700221, “Long-Term Treatment with Atypical Antipsychotic Iloperidone Modulates Cytochrome P450 2D (CYP2D) Expression and Activity in the Liver and Brain via Different Mechanisms” (Cells, 2021).

Key:
Assay type in all cases: biochemical
[1] = system: T1, CYP2D (rat liver microsomes); assay: bufuralol […]'-hydroxylation in liver microsomes, HPLC with fluorometric detection; settings: NADPH-generating system; 0.5 mg protein/mL; no inhibitor; CYP2D isoenzymes mixed
T1 construct: gene Cyp2d1; native enzymes in pooled liver microsomes of control male rats (n = 10); CYP2D1 and CYP2D2 named most abundant in liver

[2] = system: T2, CYP2D (rat brain microsomes); assay: bufuralol […]'-hydroxylation in whole-brain microsomes, HPLC with fluorometric detection; settings: NADPH-generating system; 2 mg protein/mL; no inhibitor; CYP2D isoenzymes mixed
T2 construct: gene Cyp2d4; native enzymes in pooled whole-brain microsomes of control male rats (n = 10); CYP2D4 named main brain form

[3] = target: T2, CYP2D (rat brain microsomes); assay: bufuralol […]'-hydroxylation in whole-brain microsomes, HPLC with fluorometric detection, Dixon plot; settings: competitive; bufuralol 50, 100 and 200 µM; iloperidone 25-500 µM; 2 mg protein/mL; NADPH-generating system; CYP2D isoenzymes mixed
[4] = target: T1, CYP2D (rat liver microsomes); assay: bufuralol […]'-hydroxylation in liver microsomes, HPLC with fluorometric detection, Dixon plot; settings: competitive; bufuralol 5, 10 and 20 µM; iloperidone 1-250 µM; 0.5 mg protein/mL; NADPH-generating system; CYP2D isoenzymes mixed

| Km [1] [µM] | Km [2] [µM] | Ki [3] [µM] | Ki [4] [µM] | Compound |
| --- | --- | --- | --- | --- |
| 8.26 | 492 | – | – | CCc1cccc2cc(C(O)CNC(C)(C)C)oc12 (stereo not shown) [bufuralol] |
| – | – | 462 | 11.5 | COc1cc(C(C)=O)ccc1OCCCN1CCC(c2noc3cc(F)ccc23)CC1 [iloperidone] |
